Entries after “also recorded” stand apart in the source; their conditions may differ. Square brackets hold non-standard residues; d marks the D form. Ends that are not written are not given here. Peptide text beside a SMILES is read from it. Phe(4-B(OH)2) = N[C@@H](Cc1ccc(B(O)O)cc1)C(=O)O; Dopa = N[C@@H](Cc1ccc(O)c(O)c1)C(=O)O
T1: DyLight488 labeled peptide DL488-BSCSB
T1 chain: DyLight488-[Phe(4-B(OH)2)]SCS[Phe(4-B(OH)2)]

B1: OSCSO (peptide)
chain: [Dopa]SCS[Dopa]

Key:
[1] = quoted as stand-in for the pKa of 4-borono-phenylalanine; cited from earlier work
BSCSB = experiment: Isothermal titration calorimetry (ITC), BSCSB titrated into the ligand peptide; assay type: binding; conditions: for binding in ITC at pH 7.4 (ligand comparison): pH 7.4, 25 °C, BSCSB titrated to YSCSY or OSCSO as ligand
Protocol: The pH-reversible interactions of boronic acid and catechol groups, the formation of disulfides, as well as the responsiveness of the bis-peptide system were further investigated under different conditions (Figure 5). First, the boronic acid condensation with the complementary catechol and the thermodynamic properties were assessed under pH conditions that are relevant to physiological conditions, i.e., pH = 7.4 typical for extracellular environment of normal tissues and pH 6 for acidic intracellular compartments such as endosomes.[28] Equimolar concentrations of the reacting tags were applied to investigate the thermodynamic parameters associated with the formation of the heterodimer. DyLight488 labeled peptide (DL488-BSCSB) was synthesized by connecting the commercially available NHS-ester of this dye to the N-terminus of the BSCSB sequence to enable a microscale thermophoresis (MST) experiment, in which the dissociation constant could be determined. MST measurements were performed by titrating DL488-BSCSB (2 μM) against the complementary OSCSO peptide binding partner (76 nM to 5 mM). […] Such an improvement could be explained by the lack of electrostatic repulsion due to the presence of the electroneutral serine (at physiological pH) in the sequence. […] To assess the binding constant at physiological pH and to understand the type of complex formed, isothermal titration calorimetry (ITC) measurements were performed. The raw data were plotted as heat rate versus time at pH = 6 and 7.4. (SI, Figure S16). […]
Additionally the same amount of BSCSB solution was titrated into pure water to determine the heat of dilution for reference. As a control another sequence was checked for binding with L-tyrosines instead of L-DOPA and measured as before mentioned. […]
Figure S 16: ITC titrations performed at a) pH = 7.4 and b) 6.0, showing the heat rate signals after base line correction. No heat change different from the dilution (blank) was detected for pH = 6.0. […]

A549 cells = experiment: Cell uptake by confocal microscopy; assay type: cell-based, human; conditions: 24 h, 37 °C
Protocol: For cell uptake studies, A549 cell line was selected, which is a model of alveolar Type II pulmonary epithelium.[35] The uptake was performed under two conditions to test the robustness of the resultant conjugate, which represents the extracellular conditions found in different stages of cancer progression.[36] Internalization of the conjugate was first studied in standard cell culture media (∼ neutral pH). A solution of DL488 ≃ TAT was applied directly to A549 cells to a final concentration of 10 μM, without any further workup or further purification. As additional controls, (1) a conjugate DL488-BSCSB ≃ OSCSO incubated with free TAT sequence and (2) a conjugate without the disulfide bridge (DL488-BSGSB) ∼ (TAT-OSCSO) where cysteine was replaced by glycine in one of the sequences were both applied at 10 μM (Figure 7a). […] Next, we proceeded to verify that the peptide tags are robust even under metastatic tumor-like microenvironment, where acidosis is a hallmark. Consequently, the low extracellular pH can result in a more invasive phenotype (Figure 7c), which is more challenging to treat.[28] First, A549 cancer cells were subjected to acute acidification to derive cells cultured at pH 6.4.[37]−[39] Thereafter DL488 ≃ TAT and controls 1 and 2 were applied at 10 μM for 24 h. […] Therefore, the linker chemistry can potentially be adopted for more invasive cancer phenotypes.
Sample preparation protocol. 20 µL of 2 mM solutions of DL488-BSCSB and either OSCSO, OSCSO and TAT or TAT-OSCSO were mixed together to obtain 40 µL of 1 mM solution of preassembled conjugate (in 10 mM phosphate buffer pH = 8 with 10% DMSO). The conjugate was subsequently oxidized by addition of 1 µL 75 mM potassium peroxymonosulfate (Oxone®) solution in 100 mM PB, pH = 7.4 to obtain its final concentration as 1.8 mM. Prepared conjugate was used directly for the cell studies without […]
Cell culture. The human cell line A549 from adenocarcinomic lung tissue (American Type Culture Collection, Manassas, VA, US) was cultured in Dulbecco's modified Eagle medium (DMEM 4.5 g/L D-Glucose, L-Glutamine; Gibco by ThermoFisher Scientific, Germany) supplemented with 10% fetal calf serum (FCS; Sigma Aldrich, Germany) and 1% Penicillin/Streptomycin (Invitrogen, Germany) at a humified atmosphere with 37 °C and 5% CO2 . Fresh culture medium was replaced every two days and cells were subcultured after reaching 80% confluence.
Evaluation of cell uptake. A549 cells were detached by TrypLE Select (Gibco by ThermoFisher Scientific, Germany) and centrifuged 5 min at 1000 rpm. […]

[2] = target: T1, DyLight488 labeled peptide DL488-BSCSB; experiment: MST; DL488-BSCSB (2 μM) held constant, OSCSO titrated (76 nM to 5 mM); 100 mM phosphate buffer pH 7.4 in the presence of TCEP; the legend of Figure 5b calls it a fluorescence quenching assay; conditions: both partners purified
[3] = target: T1, DyLight488 labeled peptide DL488-BSCSB; experiment: MST; DL488-BSCSB (2 μM) held constant, OSCSO titrated (76 nM to 5 mM); 100 mM phosphate buffer pH 6.0 in the presence of TCEP; the legend of Figure 5b calls it a fluorescence quenching assay; conditions: both partners purified
OSCSO = target: B1; experiment: ITC; BSCSB titrated to OSCSO (2Red); 100 mM phosphate buffer pH 7.4; independent binding model fit; conditions: both partners purified
[4] = standard cell culture media (∼ neutral pH), 10 μM, triplicates

Cc1ccc(B(O)O)cc1 [4-methylphenylboronic acid]
pKa [1]: ~8.9

NC(=O)[C@H](Cc1ccc(O)c(O)c1)NC(=O)[C@H](CO)NC(=O)[C@H](CS)NC(=O)[C@H](CO)NC(=O)[C@@H](N)Cc1ccc(O)c(O)c1 [OSCSO] (H-[Dopa]SCS[Dopa]-NH2)
binding in ITC at pH 6 (BSCSB; pH 6.0, 100 mM phosphate buffer, 25 °C, BSCSB titrated into OSCSO, compared with heat of dilution): No heat change different from the dilution; also recorded: lack of binding | binding in ITC at pH 7.4 (ligand comparison) (BSCSB): significant heat change

(DL488-BSGSB) ∼ (TAT-OSCSO) (sidechain bridge or staple) [control 2]
uptake in A549 cells (A549 cells; acidic media pH 6.4, 10 μM, no CO2, triplicates): not internalized | uptake in A549 cells (A549 cells; [4]): no uptake was observed

DL488-BSCSB≃OSCSO+TAT (bicyclic or more) [control 1]
uptake in A549 cells (A549 cells; [4]): no uptake was observed

DL488-BSCSB≃OSCSO-TAT (bicyclic or more) [DL488 ≃ TAT, dual responsive conjugate of TAT-OSCSO and DL488-BSCSB after addition of Oxone]
uptake in A549 cells (A549 cells; [4]): significant uptake

YSCSY
binding in ITC at pH 7.4 (ligand comparison) (BSCSB): No binding

B1
Kd [2]: 1800 ± 400 nM | Kd [3]: > 440000 nM

[Phe(4-B(OH)2)]SCS[Phe(4-B(OH)2)] [BSCSB]
Kd (OSCSO): 1800 ± 400 nM | stoichiometry N (OSCSO): 1.2 ± 0.1

From article PMC8532147, “Dual Stimuli-Responsive Dynamic Covalent Peptide Tags: Toward Sequence-Controlled Release in Tumor-like Microenvironments” (Journal of the American Chemical Society, 2021)
